Here are results for 12 compounds from patent publication US20240368191A1, “HETEROCYCLIC COMPOUNDS AND USES THEREOF” (Kumquat Biosciences Inc., priority 2021, published 2024).

The structures appear in SMILES notation.

In this experiment the target is T1, KRAS G12D 1-169 (His-tagged, GDP-loaded) (Homo sapiens, UniProt P01116, G12D).
T1 construct: His -tagged GDP-loaded G12D 1-169; made in house; host or cells: E. coli, e.g. BL21 (DE3)
T1 sequence (P01116 1-169 isoform P01116-2 G12D): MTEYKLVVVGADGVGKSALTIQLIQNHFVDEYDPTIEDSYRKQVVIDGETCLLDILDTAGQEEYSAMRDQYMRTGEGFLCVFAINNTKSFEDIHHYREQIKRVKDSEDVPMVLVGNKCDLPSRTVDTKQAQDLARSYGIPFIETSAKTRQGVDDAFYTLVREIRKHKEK
Nature of the experiment: Covalent modification of KRAS protein by intact-protein LC-MS. In kind it is binding. As to conditions: comparable or same conditions as K-Ras G12S. As for the experimental part:
Test compounds are prepared as 10 mM stock solutions in DMSO (Fisher cat #BP231-100). KRAS protein (His -tagged GDP-loaded wildtype 1-169, His -tagged GDP-loaded G12S 1-169 or His -tagged GDP-loaded G12D 1-169) is diluted to ˜2 μM in appropriate buffer (e.g., a Hepes buffer at physiological conditions). For testing KRAS modification, compounds are diluted to 50× final test concentration in DMSO in 96-well storage plates. 2 μl of the diluted 50× compounds are added to appropriate wells in the PCR plate (Fisher cat #AB-0800). ˜49 μl of the stock protein solution is added to each well of the 96-well PCR plate. Reactions are mixed carefully. The plate is sealed well with aluminum plate seal, and stored in drawer at room temperature for 24 hrs. 5 μl of 2% formic acid (Fisher cat #A117-50) in MilliQ H2O is then added to each well followed by mixing with a pipette. The plate is then resealed with aluminum seal and stored until mass spectrometry analysis.
The extent of covalent modification of KRAS proteins was determined by liquid chromatography electrospray mass spectrometry analysis of the intact proteins on a Thermo Q-Exactive Plus mass spectrometer. 20 μl of sample was injected onto a bioZen 3.6 μm Intact C4 column (Phenomenex cat #00B-4767-AN) placed in a column oven set to 40° C. and separated using a suitable LC gradient from ˜20% to ˜60% solvent B. Solvent A was 0.1% formic acid and solvent B was 0.1% formic acid in acetonitrile. HESI source settings were set to 40, 5 and 1 for the sheath, auxiliary and sweep gas flow, respectively. The spray voltage was 4 kV, and the capillary temperature was 320° C. S-lens RF level was 50 and auxiliary gas heater temperature was set to 200° C. The mass spectrometry was acquired using a scan range from 650 to 1750 m/z using positive polarity at a mass resolution of 70,000, AGC target of 1e6 ions and maximum injection time of 250 ms. The recorded protein mass spectrum was deconvoluted from the raw data file using Protein Deconvolution v4.0 (Thermo). The protein mass and adduct masses were exported with their peak intensities. The peak intensities for the unmodified and modified protein were used to calculate the percent covalent modification of the KRAS protein based on the following equation: % KRAS protein modification=((KRAS−compound)/(KRAS)+(KRAS−Compound))*100.
`Nc1nc2c(-c3c(Cl)cc4c(N5CCC6(CN(C(=O)n7cncn7)CCO6)C5)nc(OC[C@@]56CCCN5C[C@H](F)C6)nc4c3F)ccc(F)c2s1` (stereo partly drawn) [Compound A202, (2-(7-(2-amino-7-fluorobenzo-[d]thiazol-4-yl)-6-chloro-8-fluoro-2-(((2R,7aS)-2-fluoro-tetrahydro-1H-pyrrolizin-7a(5H)-yl)methoxy)quinazolin-4-yl)-6-oxa-2,9-diazaspiro[4.5]-decan-9-yl)(1H-1,2,4-triazol-1-yl)methanone]: the “covalent labeling of K-Ras G12D” value is given as “essentially no detectable labeling”. `N#Cc1c(N)sc2c(F)ccc(-c3c(Cl)cc4c(N5CCOC6(CN(C(=O)n7cncn7)C6)C5)nc(OC[C@@]56CCCN5C[C@H](F)C6)nc4c3F)c12` [Compound A162, 4-(4-(2-(1H-1,2,4-triazole-1-carbonyl)-5-oxa-2,8-diaza-spiro[3.5]nonan-8-yl)-6-chloro-8-fluoro-2-(((2R,7aS)-2-fluoro-tetrahydro-1H-pyrrolizin-7a(5H)-yl)methoxy)quinazolin-7-yl)-2-amino-7-fluorobenzo-[b]thiophene-3-carbonitrile]: the “covalent labeling of K-Ras G12D” value is “essentially no detectable labeling”. As to `Nc1nc2c(-c3c(Cl)cc4c(N5CCOC6(CCN(C(=O)n7cncn7)CC6)C5)nc(OCC56CCCN5C[C@H](F)C6)nc4c3F)ccc(F)c2s1` (stereo partly drawn) [Compound A243, (4-(7-(2-amino-7-fluorobenzo-[d]thiazol-4-yl)-6-chloro-8-fluoro-2-(((2R)-2-fluorotetra-hydro-1H-pyrrolizin-7a(5H)-yl)methoxy)quinazolin-4-yl)-1-oxa-4,9-diazaspiro[5.5]undecan-9-yl)(1H-1,2,4-triazol-1-yl)-methanone], the “covalent labeling of K-Ras G12D” value is given as “essentially no detectable labeling”. Then `Cc1nc(C)n(C(=O)N2CC3(C2)CN(c2nc(OC[C@@]45CCCN4C[C@H](F)C5)nc4c(F)c(-c5ccc(F)c6sc(N)c(C#N)c56)c(Cl)cc24)CCO3)n1` [Compound A283, 2-amino-4-(6-chloro-4-(2-(3,5-dimethyl-1H-1,2,4-triazole-1-carbonyl)-5-oxa-2,8-diazaspiro-[3.5]nonan-8-yl)-8-fluoro-2-(((2R,7aS)-2-fluorotetrahydro-1H-pyrrolizin-7a(5H)-yl)meth-oxy)quinazolin-7-yl)-7-fluoro-benzo[b]thiophene-3-carbonitrile], with “essentially no detectable labeling”; and `N#Cc1c(N)sc2c(F)ccc(-c3c(Cl)cc4c(N5CC6(CCCCN(C(=O)n7cncn7)C6)C5)nc(OC[C@@]56CCCN5C[C@H](F)C6)nc4c3F)c12` [Compound A285, 4-(4-(6-(1H-1,2,4-triazole-1-carbonyl)-2,6-diazaspiro[3.6]-decan-2-yl)-6-chloro-8-fluoro-2-(((2R,7aS)-2-fluorotetra-hydro-1H-pyrrolizin-7a(5H)-yl)methoxy)quinazolin-7-yl)-2-amino-7-fluorobenzo[b]thio-phene-3-carbonitrile], with “essentially no detectable labeling”; and `COCCN1CCC(Oc2nc(N3CCCCC4(CN(C(=O)n5cncn5)C4)C3)c3cc(Cl)c(-c4ccc(F)c5sc(N)c(C#N)c45)c(F)c3n2)CC1` [Compound A119, 4-(4-(2-(1H-1,2,4-triazole-1-carbonyl)-2,6-diazaspiro[3.6]-decan-6-yl)-6-chloro-8-fluoro-2-((1-(2-methoxyethyl)piperi-din-4-yl)oxy)quinazolin-7-yl)-2-amino-7-fluorobenzo[b]-thiophene-3-carbonitrile], with “essentially no detectable labeling”. Consider `N#Cc1c(N)sc2c(F)ccc(-c3ncc4c(N5CCOC6(CN(C(=O)n7cncn7)C6)C5)nc(OC[C@@]56CCCN5C[C@H](F)C6)nc4c3F)c12` [Compound A161, 4-(4-(2-(1H-1,2,4-triazole-1-carbonyl)-5-oxa-2,8-diaza-spiro[3.5]nonan-8-yl)-8-fluoro-2-(((2R,7aS)-2-fluorotetrahydro-1H-pyrrolizin-7a(5H)-yl)meth-oxy)pyrido[4,3-d]pyrimidin-7-yl)-2-amino-7-fluorobenzo[b]-thiophene-3-carbonitrile], for which the “covalent labeling of K-Ras G12D” value was “essentially no detectable labeling”.

As to `Nc1nc2c(-c3c(Cl)cc4c(N5CC6(CCN(C(=O)n7cncn7)C6)C5)nc(OC[C@@]56CCCN5C[C@H](F)C6)nc4c3F)ccc(F)c2s1` [Compound A279, (2-(7-(2-amino-7-fluorobenzo-[d]thiazol-4-yl)-6-chloro-8-fluoro-2-(((2R,7aS)-2-fluoro-tetrahydro-1H-pyrrolizin-7a(5H)-yl)methoxy)quinazolin-4-yl)-2,6-diazaspiro[3.4]octan-6-yl)(1H-1,2,4-triazol-1-yl)-methanone], the “covalent labeling of K-Ras G12D” value was “essentially no detectable labeling”. For the compound `C[C@H](Oc1nc(N2CCOC3(CN(C(=O)n4cncn4)C3)C2)c2cc(Cl)c(-c3ccc(F)c4sc(N)c(C#N)c34)c(F)c2n1)[C@@H]1CCCN1C` [Compound A275, 4-(4-(2-(1H-1,2,4-triazole-1-carbonyl)-5-oxa-2,8-diazaspiro-[3.5]nonan-8-yl)-6-chloro-8-fluoro-2-((S)-1-((S)-1-methyl-pyrrolidin-2-yl)ethoxy)quin-azolin-7-yl)-2-amino-7-fluoro-benzo[b]thiophene-3-carbonitrile], the “covalent labeling of K-Ras G12D” value is “essentially no detectable labeling”. Turning to `N#Cc1c(N)sc2c(F)ccc(-c3ncc4c(N5CCCC6(CN(C(=O)n7cncn7)C6)C5)nc(OC[C@@]56CCCN5C[C@H](F)C6)nc4c3F)c12` [Compound A134, 4-(4-(2-(1H-1,2,4-triazole-1-carbonyl)-2,6-diazaspiro[3.5]-nonan-6-yl)-8-fluoro-2-(((2R,7aS)-2-fluorotetrahydro-1H-pyrrolizin-7a(5H)-yl)meth-oxy)pyrido[4,3-d]pyrimidin-7-yl)-2-amino-7-fluorobenzo[b]-thiophene-3-carbonitrile], the “covalent labeling of K-Ras G12D” value was “essentially no detectable labeling”. Then `Cc1ncn(C(=O)N2CCCC(Oc3nc(OC[C@@]45CCCN4C[C@H](F)C5)nc4c(F)c(-c5ccc(F)c6sc(N)c(C#N)c56)c(Cl)cc34)C2)n1` (stereo partly drawn) [Compound A302, 2-amino-4-(6-chloro-8-fluoro-2-(((2R,7aS)-2-fluorotetrahydro-1H-pyrrolizin-7a(5H)-yl)meth-oxy)-4-((1-(3-methyl-1H-1,2,4-triazole-1-carbonyl)piperidin-3-yl)oxy)quinazolin-7-yl)-7-fluorobenzo[b]thiophene-3-carbonitrile], with “essentially no detectable labeling”; and `N#Cc1c(N)sc2c(F)ccc(-c3c(Cl)cc4c(N5CCCC6(CCN(C(=O)n7cncn7)C6)C5)nc(OC[C@@]56CCCN5C[C@H](F)C6)nc4c3F)c12` (stereo partly drawn) [Compound A269, 4-(4-(2-(1H-1,2,4-triazole-1-carbonyl)-2,7-diazaspiro[4.5]-decan-7-yl)-6-chloro-8-fluoro-2-(((2R,7aS)-2-fluorotetrahydro-1H-pyrrolizin-7a(5H)-yl)meth-oxy)quinazolin-7-yl)-2-amino-7-fluorobenzo[b]thiophene-3-carbonitrile], with “essentially no detectable labeling”.
